Test results published in US20020028847A1, “Method for treatment of fibrosis related diseases by the administration of prostacyclin derivatives” (Fibrogen, Inc., priority 1998, published 2002).
Where two headings read alike, the source gives them in different places.

How the values were obtained:
scleroderma fibroblasts = assay: ELISA for collagen (N propeptide of Type I collagen α chain) in cultured skin fibroblasts; format: cell-based, human
Text: 4 mm punch skin biopsies were taken from the forearms of healthy volunteers and from patients with active diffuse scleroderma. Fibroblasts from these biopsies were subcultured to passage 6 in Dulbecco's modified eagle medium with 10% fetal calf serum and Pen Strep solution and grown to confluence. Twenty-four hours before assay, the fibroblasts were switched to serum free media with exchange of media every eight (8) hours. Upon switching to serum free medium (L-ascorbic acid phosphate magnesium salt n-hydrate) (C6H6O9P) 3/2 Mg was added at a final concentration of 30 μg/ml. The supernatant fluid from the above described culture was diluted 1/100 in 0.1 M NaHCO3 and 100 μl of said diluted culture was added to each well of a 96 well maxisorp plate. The plate was then left at room temperature for two hours on a plate shaker. The plate was then washed once in PBS. 200 μl of 2% BSA in PBS was then added and the plate was left for two hours to block non-specific binding. The plate was then washed four times in PBS and first layer antibody, anti-N-procollagen I rabbit polyclonal, diluted 1/2000 in 1% BSA PBS, was added at 100 μl/well. The plate was left for two (2) hours at room temperature and then washed four times in PBS. A second layer antibody, HRP labeled goat anti-rabbit IgG 1/2000, was then added and left for two hours. […] The plate was then read on a multiwell analyser.

CTGF = CTGF ELISA on cultured skin fibroblasts; format: cell-based, human; conditions: scleroderma fibroblasts
Text: 4 mm punch skin biopsies were taken from the forearms of healthy volunteers and from patients with active diffuse scleroderma. Fibroblasts from these biopsies were subcultured to passage 6 in Dulbecco's modified eagle medium with 10% fetal calf serum and Pen Strep solution and grown to confluence. Twenty-four hours before assay, the fibroblasts were switched to serum free media with exchange of media every eight (8) hours. Upon switching to serum free medium (L-ascorbic acid phosphate magnesium salt n-hydrate) (C6H6O9P) 3/2 Mg was added at a final concentration of 30 μg/ml. The following protocol was used for the CTGF ELISA: 1. Plate antigen on Nunc immuno plase Maxisorp surface (catalog number 442402). 2. CTGF standard curve by two fold serial dilution in 6 triplicates (see Table 1, below). 3. Add 50 μl of sample to each well. 4. Leave wells for 2 hours at room temperature. 5. Wash wells 4 times with PBSa. 6. Add first layer antibody (pAB2 rabbit anti-human CTGF (0.8 mg/ml)( 1/1280)) diluted to 625 ng/ml in blocking buffer (1% BSA/0.05% tween20/PBS). 7. Add 50 μl to each well and leave at room temperature for one hour. 8. Wash wells five times with PBS. 9. Add second layer antibody donkey anti-rabbit IgG, HRP linked whole antibody (Amersham Life Sciences, Catalog No. NA 934 diluted 1/3200 in block buffer). 10. […] Stop reaction with 50 μl per well of 1M H2SO4 and read OD at 450 nm.

CTGF promoter = assay: CTGF promoter/luciferase transfection assay in normal human fibroblasts; format: cell-based; conditions: measured over a twenty-four hour period
Protocol: Normal human fibroblasts were grown to 80% confluence in a 6 well plate. 1 μg of DNA (CTGF promoter/luciferase) was added with 3 μl of FuGene 6 transfection reagent (Boehringer Mannheim 1814443); wherein the FuGene 6 was added dropwise to serum free culture medium and left at room temperature for five minutes and added to 1 µg of DNA in a separate tube for fifteen minutes. The DNA/FuGene 6 solution was then added dropwise to the cell culture by spreading around each well and swirling the flasks. The cell culture was returned to an incubator and the cells were grown again to confluence, approximately 36 hours. The cells were then switched to a serum free medium with ascorbate and left overnight. The cells were then treated for 24 hours as follows: control; Iloprost 1000 pg/ml; TGF-β 20 ng/ml; and TGF-β 20 ng/ml+Iloprost 1000 pg/ml.
After 24 hours the cells were lysed with Promega reporter lysis buffer (E 397A) at room temperature, 400 μl per […] and left for 15 minutes at room temperature. A 50 μl sample of the lysate was drawn and 100 μl of luciferase assay reagent (Promega E 148A) was added. Chemiluminensence was read using a plate reader program ARQ.1PT software micro P1.00.

CTGF RNA = assay: Northern blot for CTGF RNA; format: cell-based; conditions: cells treated with TGF-β and iloprost
Protocol: Cultured cells are grown to confluence on 100 mm plates. The cells were then serum starved with ascorbate for 24 hours, after which conditioned medium with TGF-β and Iloprost was added. The cells were then lysed with TRIzol (Gibco catalog no. 15596-018) wherein 1 ml per plate of the TRIzol was added and the plate was left at room temperature for ten minutes. 200 μl of chloroform was then added and the cells were vortexed for 20 seconds. The cells were then left alone for 5 minutes at room temperature and then centrifuged in a microcentrifuge tube for 10 minutes at maximum speed at 4° C. The upper layer was then removed (layer containing RNA) and then mixed with an equal volume of isopropanol. The mixture was then centrifuged for 10 minutes to form a pellet of RNA. 0.5 ml of 70% ethanol in RNAse free purified water was then added to the pellet. The ethanol was then tipped off and the pellet was left to dry. After five minutes, the pellet was resuspended in 20 μl of RNAse free water and kept on ice. To assay the RNA using a photospectometer, a sample of the RNA was diluted 1/500 (volume 1 ml) and read at OD 260 nm (to measure RNA) and 280 nm (to measure protein). RNA concentration was calculated in terms of μg/μl=(OD260×40×dilution)/1000. […]

[1] = test system: platelet thrombus formation; conditions: animals with thrombin induced thrombosis; cited from earlier work
Raynaud's phenomena = conditions: patients; cited from earlier work
[2] = test system: renal interlobar and cortical arteries; conditions: scleroderma patients, iloprost infusions; cited from earlier work
metastasis = conditions: several different animal models; cited from earlier work

SMILES | excessive production of collagen (scleroderma fibroblasts) | excessive production of collagen (scleroderma fibroblasts; listed as iloprost) | CTGF production (CTGF) | CTGF production (CTGF; listed as iloprost) | time of most pronounced inhibitory effect on CTGF production (CTGF promoter) | TGF-β induced synthesis of CTGF RNA (CTGF RNA) | TGF-β induced synthesis of CTGF RNA (CTGF RNA; listed as iloprost) | platelet thrombus formation [1] | safety and efficacy in Raynaud's phenomena (Raynaud's phenomena) | resistive index of the renal interlobar and cortical arteries [2] | inhibition of metastasis (metastasis)
CC#CCC(C)[C@H](O)/C=C/[C@@H]1[C@H]2C/C(=C/CCCC(=O)O)C[C@H]2C[C@H]1O (stereo partly drawn) [Iloprost, 5-(E)-(1S,5S,6R)-7-hydroxy-6[(E)-(3S,4RS)-3-hydroxy-4-methyl-1-octen-6-inyl]bicyclo[3.3.0]octen-3-ylidene pentanoic acid] | inhibited | capable of inhibiting collagen production | decrease in CTGF production | capable of inhibiting collagen production and CTGF production | most pronounced between hour 1 and hour 3 | inhibit CTGF production | blocked | prevent platelet thrombus formation | safe and effective therapy | reduction of the resistive index | 
CCC#CC[C@H](C)[C@H](O)C#C[C@@H]1[C@H]2C/C(=C/COCC(=O)O)C[C@H]2C[C@H]1O [cicaprost] |  |  |  |  |  |  |  |  |  |  | effectively inhibit metastasis
CCC#CC[C@H](C)[C@H](O)C#C[C@@H]1[C@H]2C/C(=C/COCCCC(=O)O)C[C@H]2C[C@H]1O [eptaloprost] |  |  |  |  |  |  |  |  |  |  | antimetastically acting agents
